Patent US5227163A, “Lice-repellant compositions” (priority 1992, dated 1993)
Values joined by “and” are separate entries in the source; they are usually repeats but may differ in a detail not shown here. Equal entries are not always repeated.

What was measured:
human body lice [1] = test: In vivo test of lice repellency on rabbits (spray, gel, de cologne); parameters: species or system Pediculus humanus humanus (on New Zealand white rabbits); details: for % Repellency (Mean Values): Table 3; for Number of Lice (Out of 40) Found in the Treated Area: single experiments (a), (b), (c), listed as D.M.P.
Protocol: (§1) Body lice were reared in the laboratory by feeding them every 48 hours on rabbits. Lice were placed on the shaved abdomen of a white rabbit and left until they fed to satiety. Outside the host the lice were maintained at a temperature of 30 ±1° C., and relative humidity of 70±10%.
(§2) The abdomen of a New Zealand white rabbit was shaved and 100 μl of the test substance was evenly distributed over an area 2.5×5 cm. A glass cylinder 5 cm high with an internal diameter of 3.5 cm was placed on the rabbit's abdomen so that one half of it was covering the treated area and the other half the adjacent untreated area. 40 human body lice (Pediculus humanus humanus) (20 adults and 20 nymphs) which had been fed 24 hours previously were placed in the middle of the cylinder between the treated and untreated area, and the cylinder was covered with a dark cloth in order to keep the test area in the dark. The lice remained on the body of the rabbit for 5 minutes during which time over 95% of them had started feeding. The number of lice found on the treated area was then recorded and the specimen was photographed. Room temperature during the test was 20±3° C. For comparison to the tested samples, two controls were also tested: 70% Ethanol (Frutarom, C. P.) and 33% Dimethyl Phthalate (in 70% Ethanol).
The products were topically applied as a spray, lotion or gel on human hair and skin, to repel lice. The above procedure was carried out 1, 3, 5, and 24 hours after application of a test substance. Each substance was tested three times on three different rabbits on three different occasions.
(§3) % Repellency was calculated according to equation 1.
Where: A = Total Number of lice
n = Mean number of lice found in the treated area
(§4) According to Equation 1, when lice are evenly distributed between the treated and untreated areas (n=1/2 A), % Repellency=0, and when no lice are left in the treated area (n=0), % Repellency=100.

human lice = test: In vivo lice repellency on rabbits of shampoo and conditioner; parameters: species or system human lice (on rabbits); details: for % Repellency (Mean Values): Table 5; for Number of Lice (Out of 40) Found in the Treated Area: three experiments, listed as D.M.P.
Protocol: as §1
as §2, with “Ethanol). […]” for “Ethanol).”
The efficacy of a shampoo and a hair-conditioner, aimed at repellency of human lice was examined in an in vivo procedure on rabbits. Each experiment included a terpenoid containing product and four controls: 70% Ethanol, Dimethyl phthalate, placebo shampoo and placebo conditioner. All experiments were repeated three times, and the results were consistent, as shown by Table 4.
as §3, §4

human body lice [2] = test: In vivo test of lice repellency on rabbits (spray, gel, de cologne); parameters: species or system Pediculus humanus humanus (on New Zealand white rabbits); details: 7 hours
lice = test: Standard in vitro test on filter paper (petri-dish lice repellency); details: 10 min, 20±3° C.
Protocol: Screening tests were performed on many substances of the following groups: terpenes (hydrocarbons), terpenoid alcohols, terpenoid esters, terpenoid aldehydes and ketones, essential oils which contain terpenoids and perfumes which contain terpenoids, as well as various general insect repellents, for lice-repellency. Each experiment included exposure of the lice to different concentrations of the tested substance, and measuring the dose response of those materials.
A petri-dish method was used to examine the repellency of the solutions for lice. A filter paper (Whatman No. 4, 5.5 cm in diameter) was secured in a petri-dish. A 100 μl portion of the test solution was placed on a corduroy patch (1.5 cm^2). The material was allowed to dry for 30 min. at room temperature (20±3° C.) and the patch was placed at the periphery of the petri-dish. A patch treated with a control solution (96% Ethanol) was placed on the opposite side of the dish. Twenty female lice which had been fed 24 hours previously were placed in the middle of the dish. A box was placed over the dish and it was covered with a dark cloth in order to keep the test area in the dark. The experiment was carried out at room temperature (20°±3° C.) and lasted 10 min. The number of lice on the treated and controlled patches as well as on the area between the patches was recorded in a protocol. The experiment was repeated three times for each sample.
% repellency was calculated by the following formula:
where: T=number of lice on the treated patch
C=number of lice on the untreated patch
The following terms were recorded:
RC80 =Concentration giving 80% repellency.
RC50 =Concentration giving 50% repellency.
RD80 =mg/cm^2 giving 80% repellency.
RD50 =mg/cm^2 giving 50% repellency.

mosquito = details: Hwang et al. 1985; Ruledge 1988; cited from earlier work

COC(=O)c1ccccc1C(=O)OC [Dimethyl Phthalate]
% Repellency (Mean Values) (human body lice [1]; 1 hour): 20% | Number of Lice (Out of 40) Found in the Treated Area (human body lice [1]; 1 hour): 21 and 12 and 15 | % Repellency (Mean Values) (human body lice [1]; 3 hours): 10% | Number of Lice (Out of 40) Found in the Treated Area (human body lice [1]; 3 hours): 16 and 18 and 20 | % Repellency (Mean Values) (human body lice [1]; 5 hours): 20% | Number of Lice (Out of 40) Found in the Treated Area (human body lice [1]; 5 hours): 16 and 14 and 18 | lice repellency in vivo, in words (human body lice [1]; rabbit, in vivo): poor results | repellency against lice over the duration stated (human body lice [1]; range over at least 5 or 7 hours): 10-25% | % Repellency (Mean Values) (human lice; 1 hour): 20% | Number of Lice (Out of 40) Found in the Treated Area (human lice; 1 hour): 21 and 12 and 15 | % Repellency (Mean Values) (human lice; 3 hours): 10% | Number of Lice (Out of 40) Found in the Treated Area (human lice; 3 hours): 16 and 18 and 20 | Number of Lice (Out of 40) Found in the Treated Area (human lice; 4 hours): 16 and 14 and 18 | % Repellency (Mean Values) (human lice; 5 hours): 20% | % Repellency (Mean Values) (human lice; 7 hours): 26% | Number of Lice (Out of 40) Found in the Treated Area (human lice; 7 hours): 18 and 14 and 12 | % Repellency (Mean Values) (human body lice [2]; Table 3): 26% | Number of Lice (Out of 40) Found in the Treated Area (human body lice [2]; single experiments (a), (b), (c), listed as D.M.P.): 18 and 14 and 12

CC1=CCC(C(C)(C)O)CC1 (stereo not drawn) [α-TERPINEOL, α-terpineol]
RC50 (Concentration giving 50% repellency) (lice): 0.040% | RC80 (Concentration giving 80% repellency) (lice): 0.080% | RD80 (mg/cm^2 giving 80% repellency) (lice): 0.056 mg/cm^2 | mosquito repellency, in words (mosquito): useful in mosquito repellent
